From US10660933B2, “Compositions and methods for inhibition of bacterial infections in human endocervix” (priority 2015, dated 2020)
Entries after “also recorded” stand apart in the source; their conditions may differ. Ends that are not written are not given here.

Columns and labels:
polarized T84 cells [1] = assay: Ng-induced exfoliation of polarized T84 monolayers (3D-CFM); format: cell-based, human; conditions: MS11ΔOpa, 6 h; inhibitor 1 h before and during; ML-7 10 μM, PIK 100 μM, Y27632 10 μM, 2APB 10 μM
Source text: (§1) To quantify epithelial exfoliation, the number of Ng associated cells localized on the top of the epithelial monolayer (exfoliated) and the total number of Ng associated epithelial cells was counted by visual inspection in each randomly acquired image, to determine the percentage of exfoliated cells. To estimate the level of Ng penetration into the subepithelium, the number of non-exfoliated epithelial cells (in clearly visible epithelial monolayers) with basal Ng staining and the total number of Ng associated epithelial cells were visually counted to calculate the percentage of infected epithelial cells with Ng penetration into the basolateral side. To evaluate the disruption of the apical junction, the number of Ng associated epithelial cells that lost continuously apical staining of the junctional protein ZO1 and the total number of Ng associated epithelial cells were visually counted to calculate the percentage of Ng associated epithelial cells with apical junction disassembly. To quantify the redistribution of pMLC, the fluorescence intensity ratios (FIR) of pMLC staining at the apical to lateral in individual epithelial cells were determined using average FI as previously described.
(§2) Immunofluorescence analysis of polarized epithelial cells. Cells were pretreated with or without NMII kinase inhibitors, Y27632 (10 μM, EMD Millipore), ML-7 (10 μM, EMD Millipore) and PIK (100 μM) or Ca2+ inhibitors, 2APB (10 μM, EMD Millipore) and BAPTA (50 μM, EMD Millipore) for 1 h, and incubated with Ng in the presence or absence of the inhibitors for 6 h. Cell were washed and fixed with 4% paraformaldehyde, permeabilized with 1% Triton X100, and stained with anti-E-cadherin (BD Bioscience), anti-pMLC (Cell Signaling Technology, Carlsbad, Calif.), anti-Ng antibodies, and DAPI for nuclei. Cells were analyzed by CFM. Images were acquired as Z-series of 0.37 μm slices, and 3D composites obtained. Epithelial exfoliation will be quantified using xz images as described for the tissue explants. The distribution of E-cadherin and pMLC was quantitatively analyzed by measuring the FIR at the apical junctional to the cytoplasmic area (from xy images) or at the apical to lateral surface area (from xz images) in individual cells.

polarized T84 cells [2] = assay: Exfoliation of polarized T84 cells treated with inhibitors alone, without Ng; format: cell-based, human; conditions: no Ng inoculation, 6 h
Description: Polarized T84 cells were treated with inhibitors for 6 h, fixed, stained to visualize the cell nuclei, and imaged by 3D-CFM. The percentage of cell moving above the epithelial monolayer (dash lines) was determined from three independent experiments. Scale bar, 5 μm. *p≤0.05.
as §2

[3] = test system: Neisseria gonorrhoeae MS11ΔOpa; assay: Ng subepithelial penetration in human endocervical tissue explants (3D-CFM); format: cell-based
Description: (§3) Human endocervical tissue explants. The tissue explants were cultured as previously described. Endocervical tissues were obtained from patients undergoing voluntary hysterectomies and received within 24 h post-surgery. Samples were cut into ˜2.5 cm (L)×0.6 cm (W)×0.3 cm (H) pieces, incubated in CMRL-1066 (GIBCO, Gaithersburg, Md.) plus antibiotics for 24 h, and then switched to antibiotic-free media for 24 h.
Immunofluorescence analysis of human endocervical tissue explants. Individual endocervical tissue pieces were incubated with Ng at a MOI of ˜10 (based on the average number of endocervical epithelial cells in endocervical tissue pieces) in the presence or absence of the MLCK inhibitor ML-7 (10 μM, EMD Millipore) and PIK (100 μM) (54) on transwells for 24 h. Unassociated Ng were removed by extensive washes at 6 and 12 h. The tissue was fixed, embedded in gelatin, cryopreserved, sectioned crossing the apical and basolateral surfaces of the epithelium, stained for ZO1 (BD Bioscience), pMLC (Cell Signaling Technology, Beverly, Mass.), and Ng (51) by specific antibodies, and nuclei by DAPI (Life Technologies, Carlsbad, Calif.), and analyzed using CFM (Zeiss LSM 710, Carl Zeiss Microscopy LLC, Oberkochen, Germany). […]
as §1, with “To evaluate the disruption of the apical junction, the number of Ng associated epithelial cells that lost continuously apical staining of the junctional protein ZO1 and the total number of Ng associated epithelial cells were visually counted to calculate the percentage of Ng associated epithelial cells with apical junction disassembly.” left out

[4] = test system: Neisseria gonorrhoeae MS11; assay: Ng adherence, invasion, and transmigration assays on polarized epithelial cells; format: cell-based
Description: Ng adherence, invasion, and transmigration assays. The assays were performed as previously described. Briefly, polarized epithelial cells that were pretreated with or without the inhibitors for 1 h were incubated apically with Ng at 37° C. for 3 h for adherence and 6 h for invasion and transmigration assays with or without the inhibitors. Ng in the basolateral media were cultured and counted as transmigrated bacteria. Cells were washed and lysed to count adherent Ng. Cells were treated with gentamicin, washed, and lysed to count bacteria that were resistant to gentamicin treatment as invaded Ng.

[5] = test system: phosphorylated myosin light chain (pMLC); assay: pMLC (active NMII) redistribution in Ng-inoculated polarized T84 cells (3D-CFM); format: cell-based, human
Description: Ng induce and Opa suppresses the redistribution of active non-muscle myosin II in polarized and endocervical epithelial cells. […] We examined the cellular distribution of active NMII after 6-h incubation with Ng, using antibody specific for phosphorylated myosin light chain (pMLC) and 3D-CFM. In uninfected polarized T84 (FIGS. 5A and 5C) and HEC-1-B cells (FIG. 10), pMLC was primarily localized at the apical junction. The polarized distribution of pMLC at the apical surface was quantified by the FIR of pMLC at the apical to the lateral (Apical:Lateral) membrane areas in individual cells using CFM images scanning across the apical and basolateral surfaces (FIGS. 5A and 5B). The polarized distribution pMLC at the apical junction was quantified by the FIR of pMLC at the junction to non-junction (Junction:Non-junction) areas of the apical region using CFM images scanning through the apical junction (FIGS. 5C and 5D). The apical inoculation of MS11Opa+ and MS11ΔOpa caused significant increases in apical:lateral FIR in both polarized T84 (FIGS. 5A and 5B) and HEC-1-B cells (FIG. 10), compared to the no Ng control. There were also significant increases in the junction:non-junction FIR in infected polarized T84 cells, compared to non-infected cells (FIGS. 5C and 5D). […] We further noticed that NMII at the apical surface appeared to accumulate at Ng adherent sites (FIG. 5A, middle panels, arrows).
as §2

[6] = test system: human endocervical tissue explants; assay: Ng-induced epithelial exfoliation of human endocervical tissue explants (3D-CFM); format: cell-based; conditions: MS11ΔOpa, 24 h; ML-7 10 μM, PIK 100 μM
Description: as §3
(§4) Immunofluorescence analysis of human endocervical tissue explants. […] The tissue was fixed, embedded in gelatin, cryopreserved, sectioned crossing the apical and basolateral surfaces of the epithelium, stained for ZO1 (BD Bioscience), pMLC (Cell Signaling Technology, Beverly, Mass.), and Ng (51) by specific antibodies, and nuclei by DAPI (Life Technologies, Carlsbad, Calif.), and analyzed using CFM (Zeiss LSM 710, Carl Zeiss Microscopy LLC, Oberkochen, Germany). […]
To quantify epithelial exfoliation, the number of Ng associated cells localized on the top of the epithelial monolayer (exfoliated) and the total number of Ng associated epithelial cells was counted by visual inspection in each randomly acquired image, to determine the percentage of exfoliated cells. […] To quantify the redistribution of pMLC, the fluorescence intensity ratios (FIR) of pMLC staining at the apical to lateral in individual epithelial cells were determined using average FI as previously described.

Neisseria gonorrhoeae = assay: Ng growth; format: cell-based; conditions: FIG. 13
[7] = test system: phosphorylated myosin light chain (pMLC); assay: pMLC redistribution in Ng-inoculated human endocervical tissue explants; format: cell-based; conditions: MS11ΔOpa-inoculated endocervical tissue explants, 24 h
Description: To explore the possibility of that Ng induced NMII redistribution occurs in vivo, we incubated human endocervical tissue explants with MS11ΔOpa for 24 h. Cryo-sections of the endocervical tissue were stained for pMLC, Ng and nuclei. In addition to its apical junction localization, pMLC was concentrated at the basal surface of the endocervical epithelial cells contacting with the basal membrane (FIG. 6A, upper panels). When incubated with MS11ΔOpa, there was a redistribution of pMLC from the basal to apical surface, resulting in a significant higher apical:lateral FIR in Ng inoculated tissue explants than that in no Ng control (FIG. 6), similar to what we observed in polarized T84 (FIGS. 5A and 5B) and HEC-1-B cells (FIG. 10). Furthermore, pMLC at the apical surface of the endocervical epithelial cells also concentrated at Ng adherent sites (FIG. 6A, second row, white arrows), but not at the membrane of cells neighboring exfoliating cells (FIG. 6A, second row, orange arrows). These observations confirm that Ng increase the relative amount of activated NMII at the apical surface of the endocervical epithelial cells in human tissue explants. […]
as §4
as §1, with “To quantify the redistribution of pMLC, the fluorescence intensity ratios (FIR) of pMLC staining at the apical to lateral in individual epithelial cells were determined using average FI as previously described.” left out

Substance: PIK: peptide MLCK inhibitor comprising SEQ ID NO:1 (lys-arg-arg-tyr-lys-tyr-lys-lys-arg) with at least one D-amino acid; from U.S. Pat. No. 7,585,844 (KRRYKYKKR; also: at least one D-amino acid, places not given here)
- exfoliation of MS11ΔOpa-infected epithelial cells from T84 monolayers (polarized T84 cells [1]): reduced the exfoliation
- epithelial exfoliation with inhibitors alone (polarized T84 cells [2]): did not affect epithelial exfoliation
- Ng penetration into human endocervical epithelia ([3]; FIG. 12A-B): inhibits Ng penetration; also recorded: robust inhibition
- percentage of epithelial cells with basally associated Ng ([3]; MS11ΔOpa, 24 h, ML-7 10 μM or PIK 100 μM, 27% without inhibitor): 7.1%
- transmigration of MS11ΔOpa across the polarized T84 monolayer ([4]; 6 h, ML-7 10 μM, PIK 100 μM, 2APB 10 μM, Y27632 10 μM): significantly reduced the transmigration
- Ng trans-migration across polarized human epithelial cells ([4]; FIG. 12C): inhibits
- Ng adherence to polarized T84 cells ([4]; MS11ΔOpa, 3 h, with inhibitors): none of these inhibitors had any significant effect
- Ng invasion into polarized T84 cells (gentamicin resistance) ([4]; MS11ΔOpa, 6 h, with inhibitors): none of these inhibitors had any significant effect
- accumulation of pMLC at Ng adherent sites ([5]; polarized T84, Ng 6 h): significantly reduced
- junction:non-junction FIR of pMLC ([5]; polarized T84, Ng 6 h (Y27632: MS11ΔOpa), ML-7 10 μM, PIK 100 μM, Y27632 10 μM, 2APB 10 μM, BAPTA 50 μM): significantly reduced
- apical:lateral FIR of pMLC ([5]; polarized T84, Ng 6 h, ML-7 10 μM, PIK 100 μM, Y27632 10 μM, 2APB 10 μM, BAPTA 50 μM): significantly reduced
- epithelial exfoliation of human endocervical tissue explants [6]: decreased the epithelial exfoliation of human endocervical tissue explants to the basal level
- Ng growth (Neisseria gonorrhoeae): suppresses Ng growth
- pMLC accumulation at Ng adherent sites [7]: significantly reduced
- apical:lateral FIR of pMLC ([7]; ML-7 10 μM, PIK 100 μM): significantly reduced
